Reference: patent US10196356B2, “Mixed disulfide conjugates of thienopyridine compounds and uses thereof” (The Regents of the University of Michigan, priority 2013, dated 2019)

Experiments:
[1] = Kinetics for the reduction of the mixed disulfide conjugates of clopidogrel by GSH (conversion to the AM); assay type: in vitro ADME; settings: for first order rate constant for the loss of the mixed disulfide conjugate: 0.2 mg/ml cytosol, 37° C.; for second order rate constant for the loss of the conjugate: equivalent from pseudo first order with 1 mM GSH, with cytosol
Experimental: The mixed disulfide conjugates were prepared from the reaction mixtures containing 1 mg/ml HLM, 0.1 mM 2-oxoclopidogrel, the NADPH-regenerating system and various thiol reductants and purified using SPE C18 cartridges as described in Materials and Methods. The purified conjugates were then mixed with 1 mM GSH and 0.2 mg/ml cytosol (when present). The conjugate remaining and the AM formed were analyzed using LC-MS/MS. Legend: (A) reduction of the conjugates of BME (◯), CPT (▪), NAC (▾), DFT (▴), and NPT (□) by 1 mM GSH in the presence of 0.2 mg/ml cytosol. (B) reduction of the CPT conjugate by 1 mM GSH in the presence and absence of 0.2 mg/ml cytosol. Legend: (◯), formation of AM in the absence of cytosol; (Δ), formation of the AM in the presence of cytosol; (●), reduction of the conjugate in the absence of cytosol; (▴), reduction of the conjugate in the presence of cytosol. The solid and dashed lines are non-linear curve fittings to a single exponential function.
To examine the reactivity of the mixed disulfide conjugates, the kinetics for the reduction of the mixed disulfide conjugates by GSH were determined. The mixed disulfide conjugates were generated in 1 ml of 50 mM KPi buffer (pH 7.4) buffer containing 1 mg/ml HLM, 0.1 mM 2-oxoclopidogrel and 0.3 or 1 mM thiol reductants. The reaction was incubated at 37° C. for 50 min after initiated by the addition of G6PD. The reaction mixture was then centrifuged at 13,000×g to remove the HLMs and the supernatant was loaded to a pre-conditioned SPE cartridge (C18, 100 mg/1 ml, Agilent Technologies, CA) and the mixed disulfide conjugate was eluted with 2 ml of methanol. The eluent was then dried using a Speedvac concentrator and the dried sample was stored at −80° C. until use. Prior to the kinetic measurements, the dried samples were first re-dissolved in 0.5 ml of 50 mM KPi buffer (pH 7.4) and then equilibrated at 37° C. for 5 min. Small aliquots (1-5 μl) of stock GSH and cytosol (when present) solutions were added to the conjugate samples at 1 mM and 0.2 mg/ml, respectively, to initiate the thiol-disulfide exchange reaction. At designated times, an aliquot of 50 μl of the reaction mixture was withdrawn and mixed with 25 μl of 10% acetic acid in acetonitrile to terminate the thiol-disulfide exchange reaction. The t=0 sample was prepared immediately prior to the addition of GSH. The amounts of the mixed disulfide conjugates and the AM were analyzed using LC-MS/MS as described above.

[2] = test system: platelets (P2Y12 receptor); assay: Ex vivo anti-platelet activity of the mixed disulfide conjugates (ADP-induced aggregation, aggregometer); assay type: cell-based, New Zealand white rabbits; settings: 10 μM ADP; for inhibition of platelet aggregation, conjugate itself: not treated with GSH
Experimental: The mixed disulfide conjugates were prepared and purified from the reaction mixtures in the presence of 0.3 mM CPT and NPT, along with three control samples containing either 1 mM GSH, no thiol reductant or no G6PD. All samples were re-suspended in 0.5 ml PPP, some of which were treated to 1 mM GSH to release the AM. Platelet aggregation was initiated by the addition of 10 μM ADP and recorded with an aggregometer. The percentage of aggregation was normalized to that of PRP and averaged over four separate measurements. For details, see Materials and Methods. Legend: PRP, untreated platelet-rich plasma; GSH, 1 mM GSH in PRP; −G6PD, metabolites produced in the absence of G6PD; —SH, metabolites produced in the absence of any thiol reductants; GSH, metabolites produced in the presence of 1 mM GSH; CPT, metabolites produced in the presence of 0.3 mM CPT; CPT+GSH, metabolites produced in the presence of 0.3 mM CPT and then treated with 1 mM GSH; NPT, metabolites produced in the presence of 0.3 mM NPT; NPT+GSH, metabolites produced in the presence of 0.3 mM NPT and then treated with 1 mM GSH.
In order to generate sufficient quantities of the mixed disulfide conjugates, the metabolism of 2-oxoclopidogrel was performed in 2-ml reaction mixtures containing 1 mg/ml HLM, 0.1 mM 2-oxoclopidogrel, the NADPH-regenerating system, and 0.3 mM CPT or NPT or 1 mM GSH. The reaction was initiated by the addition of 10 units G6PD and incubated at 37° C. for 50 min. Two control samples were prepared in parallel. […] After an incubation of 50 min, the reaction mixtures were centrifuged at 13,000×g to remove the HLMs. The supernatants were loaded onto SPE C18 cartridges to enrich the mixed disulfide conjugates. After extensive washing with water to remove salts and other water-soluble metabolites, the conjugate samples were eluted with 2 ml of methanol. The methanolic fractions were dried using a Speedvac concentrator and the dried samples were then re-suspended in 1 ml of platelet-poor plasma (PPP). Prior to the anti-platelet activity assays, the re-suspended conjugates were divided into two equal volumes (0.5 ml each), one of which was treated with 1 mM GSH at 37° C. for 30 min to generate the AM. Both samples were then placed on ice until use.
The procedures used to determine ex vivo anti-platelet activity were previously reported (see, e.g., Abell L M and Liu E C (2011) J Pharm Exp Ther 339(2):589-596).
Male New Zealand white rabbits (2.2-2.9 kg) were used as blood donors. Whole blood was drawn from a central ear artery into a plastic syringe containing 3.7% sodium citrate as the anticoagulant (1:10 volume ratio of citrate to blood). A whole blood cell count was determined with a Medonic CA620 hematology analyzer (Clinical Diagnostic Solutions, Inc., Plantation, Fla., USA). Platelet-rich plasma (PRP), the supernatant present after centrifugation of whole blood at 100×g for 10 min, was diluted with PPP to achieve a platelet count of approximately 300,000/μl. Platelet-poor plasma was prepared by centrifuging the remaining blood at 1,500×g for 10 min and discarding the bottom cellular layer. The diluted PRP was divided into 0.5 ml samples, centrifuged again at 170×g for 10 mins, and the resulting supernatant was discarded. The platelet pellets were re-suspended in platelet-poor plasma containing the various chemical inhibitors prepared as described previously and incubated with gentle shaking at 37° C. for 60 min to modify the P2Y12 receptor. Ex vivo platelet aggregation was assessed by established nephelometric methods with the use of a 4-channel aggregometer (BioData PAP-4; BioData Corp., Horsham, Pa., USA) by recording the increase in light transmission through a stirred suspension of PRP maintained at 37° C. Platelet aggregation was induced with ADP (10 μM). A subaggregatory concentration of epinephrine (550 nM) was used to prime the platelets before addition of the agonist.

[3] = test system: platelets; assay: Platelet aggregation assay with conjugates pre-incubated with GSH (Example III); assay type: cell-based, rabbits; settings: 5 μM ADP; for inhibition of platelet aggregation: conjugate incubated with 1 mM GSH 37° C. 30 min, compared with negative control without conjugate
Experimental: Approximately 20 ml blood was drawn from rabbits and platelets were collected by centrifugation whereas the supernatants were collected as platelet poor plasma (PPP). Prior to the inhibition assay, the conjugates of Clop-CPT and Tic-NPT were dissolved in 0.5 ml PPP and incubated with 1 mM GSH at 37° C. for 30 min to produce the active metabolite. The platelets were then re-suspended gently in the PPP containing the active metabolite. After incubation at 37° C. for one hour, platelet aggregation was initiated by the addition of 5 μM of the agonist ADP. Platelet aggregation was then recorded using an aggregometer.

[4] = conjugate treated with 1 mM GSH 37° C. 30 min, normalized to PRP
[5] = 1 mM GSH, in the absence of cytosol
[6] = 1 mM GSH, in the presence of cytosol (FIG. 5B)

With COC(=O)C(c1ccccc1Cl)N1CCC(SSc2ncccc2[N+](=O)[O-])C(=CC(=O)O)C1 (stereo not drawn) [NPT conjugate] the “first order rate constant for the loss of the mixed disulfide conjugate” value (shortened to “first order rate constant for the loss”) ([1]; 1 mM GSH) was 0.13 min⁻¹, the “second order rate constant for the loss of the conjugate” value (from here on “second order rate constant for the loss”) [1] was 2.2 M⁻¹ s⁻¹ and the “inhibition of platelet aggregation” value [2, 4] was ~70%. For the same molecule, the “inhibition of platelet aggregation, conjugate itself” value ([2]; normalized to PRP) was “did not inhibit platelet aggregation”.

For COC(=O)[C@H](c1ccccc1Cl)N1CCC(SSc2cc(C)oc2C)C(=CC(=O)O)C1 (stereo partly drawn) [DFT conjugate], the “first order rate constant for the loss” value ([1]; 1 mM GSH) was 1.65 min⁻¹ and the “second order rate constant for the loss” value [1] was 28 M⁻¹ s⁻¹.

For COC(=O)[C@H](c1ccccc1Cl)N1CCC(S)/C(=C\C(=O)O)C1 (stereo partly drawn) [AM, reference compound], the “level of inhibition of platelet aggregation relative to the conjugates” value ([3]; positive control: active metabolite generated from HLMs) was “approximately the same” and the “inhibition of platelet aggregation” value ([2]; sample from HLM reaction mixture containing 1 mM GSH (AM, estimated 1-4 μM)) was ~60%.

For COC(=O)[C@H](c1ccccc1Cl)N1CCC(SSCCO)C(=CC(=O)O)C1 (stereo partly drawn) [BME conjugate], the “first order rate constant for the loss” value ([1]; 1 mM GSH) was 0.07 min⁻¹, the “conjugate remaining after incubation” value ([1]; 40 min, 1 mM GSH, cytosol) was ~50% and the “second order rate constant for the loss” value [1] was 1.2 M⁻¹ s⁻¹.

With COC(=O)C(c1ccccc1Cl)N1CCC(SSc2ccc(Cl)nn2)/C(=C\C(=O)O)C1 (stereo not drawn) [Clop-CPT] the “inhibition of platelet aggregation” value [3] was “approximately 60%”, the “first order rate constant for the loss” value ([1]; 1 mM GSH) was 0.79 min⁻¹ and the “rate constant for the formation of the AM” value [1, 5] was 0.35 min⁻¹. For the same molecule, the “rate constant for the reduction of the conjugate” value [1, 5] was 0.39 min⁻¹, the “rate constant for the formation of the AM” value [1, 6] was 0.50 min⁻¹ and the “rate constant for the reduction of the conjugate” value [1, 6] was 0.73 min⁻¹. For the same molecule, the “second order rate constant for the loss” value [1] was 13 M⁻¹ s⁻¹, the “inhibition of platelet aggregation” value [2, 4] was ~50% and the “inhibition of platelet aggregation, conjugate itself” value ([2]; normalized to PRP) was “did not inhibit platelet aggregation”.

In the case of O=C(O)/C=C1/CN(Cc2ccccc2Cl)CCC1SSc1ncccc1[N+](=O)[O-] (stereo not drawn) [Tic-NPT, (Z)-2-(1-(2-chlorobenzyl)-4-((3-nitropyridin-2-yl)disulfanyl)piperidin-3-ylidene)acetic acid], the “inhibition of platelet aggregation” value [3] was “approximately 60%”.

In the case of COC(=O)[C@H](c1ccccc1Cl)N1CCC2SC(=O)C=C2C1 (stereo partly drawn) [2-oxoclopidogrel, reference compound], the “inhibition of platelet aggregation” value ([2]; −G6PD control (non-metabolite components of the reaction mixture)) was “did not inhibit platelet aggregation”.

With COC(=O)C(c1ccccc1Cl)N1CCC(SSCC(NC(C)=O)C(=O)O)C(=CC(=O)O)C1 (stereo not drawn) [NAC conjugate] the “first order rate constant for the loss” value ([1]; 1 mM GSH) was 0.43 min⁻¹ and the “second order rate constant for the loss” value [1] was 7.2 M⁻¹ s⁻¹.
